The assay relates to Oxaliplatin induced peripheral neuropathy in rat. Put plainly: Cold hyperalgesia method (tail immersion test), oxaliplatin induced peripheral neuropathy. It is filed as in vivo, Wistar. Particulars: for % (average tail immersion time relative to 20.00 of normal control): Table 2, doses of Table 1 p.o.; for % (average tail immersion time relative to 20.00 of normal control) / Duration of tail immersion, AVG / Duration of tail immersion, Animal Mark 1 / Duration of tail immersion, Animal Mark 2 / Duration of tail immersion, Animal Mark 3 / Duration of tail immersion, Animal Mark 4 / Duration of tail immersion, Animal Mark 5 / Duration of tail immersion, Animal Mark 6: rat; for % (average tail immersion time relative to 20.00 of normal control) / Duration of tail immersion, AVG: n=6; for % (Day 4 relative to 20.00) / Tail immersion time, Day 0 / Tail immersion time, Day 4: Table 3, groups named by human effective dose/day; for Duration of tail immersion, AVG / Duration of tail immersion, Animal Mark 1 / Duration of tail immersion, Animal Mark 2 / Duration of tail immersion, Animal Mark 3 / Duration of tail immersion, Animal Mark 4 / Duration of tail immersion, Animal Mark 5 / Duration of tail immersion, Animal Mark 6: p.o. Day 1-3 at doses of Table 1, 24 hrs after oxaliplatin 12 mg/kg i.p., cut-off 20 seconds. How it is done:
Example 21—Animal Study—Screening effect of synergistic combination or composition/formulation comprising PEA and other natural ingredients against Oxaliplatin induced peripheral neuropathy in rat.
• Species: Rat (Rattus norvegicus); • Strain: Wistar; Sex: Male/Female • No. of animals: 54 Animals (n=6 per group) • Animal House conditions: • Lighting: 12/12 hour light-dark cycle • Temperature: 25±2° C. • Relative Humidity: 30 to 70% • Temperature and relative humidity were recorded Thrice daily.
EXPERIMENTAL PROCEDURE: In study fifty-four (54) rats, were divided into total nine (09) groups. Group 1 served as the normal control, Group 2 served as the disease control, Group 3, Group 4 and Group 5 served as component (A, B and C), Group 6, Group 7 and Group 8 served as formulation of test drug, while Group 9 served as the Reference standard group. For these studies, the following combinations were used.
Group-1 received vehicle (0.25% w/v Sodium CMC) orally (p.o.) for three consecutive days (Day 1, 2 & 3). Group-2 to Group-8 received test drugs, while Group 9 received Pregabalin orally (p.o.) on Day-1, Day-2 and Day-3. All treatment groups (Group 2 to 9) were administered with oxaliplatin (12 mg/kg, i.p.) on Day-3 prior to 2 hrs of test drug administration. After 24 hrs of oxaliplatin administration, treated groups as well as the normal control group were assessed using the Cold hyperalgesia method.
Cold Hyperalgesia method (Tail Immersion Test): In the Tail-immersion test, water was maintained at low (0 to 4-C) temperature. The tail of the rat was immersed in cold water and the duration (time in seconds) of tail immersion was recorded, until the tail was withdrawn from water. The cut-off time of 20 seconds was used. The decrease in tail contact time with cold water was indicative pain whereas prolonged contact time was noted as anti-allodynic effect.

Take `O=c1c(-c2ccc(O)cc2)coc2cc(O)ccc12` [Daidzein]: the “% (average tail immersion time relative to 20.00 of normal control)” value was 41.38%; the “% (Day 4 relative to 20.00)” value amounted to 41.38%; the “Tail immersion time, Day 0” value was 20.00; the “Tail immersion time, Day 4” value was 8.28. The “Duration of tail immersion, AVG” value is 8.28 s; the “Duration of tail immersion, Animal Mark 1” value (“Duration … Animal Mark 1” below) came out at 8.55 s; the “Duration of tail immersion, Animal Mark 2” value (“Duration … Animal Mark 2” below) is 8.00 s; the “Duration of tail immersion, Animal Mark 3” value (“Duration … Animal Mark 3” below) was found to be 8.98 s. The “Duration of tail immersion, Animal Mark 4” value (“Duration … Animal Mark 4” below) is 7.95 s; the “Duration of tail immersion, Animal Mark 5” value (“Duration … Animal Mark 5” below) amounted to 8.12 s; the “Duration of tail immersion, Animal Mark 6” value (“Duration … Animal Mark 6” below) was found to be 8.05 s.
On to `CCCCCCCCCCCCCCCC(=O)NCCO` [PEA, Palmitoylethanolamide], for which the “% (average tail immersion time relative to 20.00 of normal control)” value worked out at 55.73%; the “% (Day 4 relative to 20.00)” value came out at 55.73%; the “Tail immersion time, Day 0” value is listed as 20.00; the “Tail immersion time, Day 4” value amounted to 11.15. Also, the “Duration of tail immersion, AVG” value worked out at 11.15 s; the “Duration … Animal Mark 1” value stood at 11.32 s; the “Duration … Animal Mark 2” value turned out to be 11.55 s; the “Duration … Animal Mark 3” value was 10.85 s. Besides, the “Duration … Animal Mark 4” value was determined as 10.97 s; the “Duration … Animal Mark 5” value was 11.44 s; the “Duration … Animal Mark 6” value was determined as 10.75 s.
`O=c1c(-c2ccc(O)cc2)coc2cc(O)cc(O)c12` [Genistein]: the “% (average tail immersion time relative to 20.00 of normal control)” value was determined as 37.58%; the “% (Day 4 relative to 20.00)” value turned out to be 37.58%; the “Tail immersion time, Day 0” value is on record as 20.00; the “Tail immersion time, Day 4” value came to 7.52. In addition, the “Duration of tail immersion, AVG” value came out at 7.52 s; the “Duration … Animal Mark 1” value amounted to 7.68 s; the “Duration … Animal Mark 2” value stood at 7.15 s; the “Duration … Animal Mark 3” value is 7.23 s. Besides, the “Duration … Animal Mark 4” value is 7.68 s; the “Duration … Animal Mark 5” value amounted to 7.68 s; the “Duration … Animal Mark 6” value stood at 7.68 s.
Take `CC(C)C[C@H](CN)CC(=O)O` [Pregabalin, reference compound]: the “% (average tail immersion time relative to 20.00 of normal control)” value came to 96.27%; the “% (Day 4 relative to 20.00)” value is on record as 96.27%; the “Tail immersion time, Day 0” value stood at 20.00; the “Tail immersion time, Day 4” value was found to be 19.25. Also, the “Duration of tail immersion, AVG” value came to 19.25 s; the “Duration … Animal Mark 1” value is 17.20 s; the “Duration … Animal Mark 2” value worked out at 20.00 s; the “Duration … Animal Mark 3” value was 20.00 s. Further, the “Duration … Animal Mark 4” value was 19.95 s; the “Duration … Animal Mark 5” value was 18.37 s; the “Duration … Animal Mark 6” value is 20.00 s.

The record behind these values is patent publication US12138242B1, “Controlling neuropathic pain” (Frimline Private Limited, priority 2017, dated 2024).
